Data on one molecule can be found in patent publication US11660301B2, “Combination of ATR kinase inhibitors with PARP inhibitors” (Bayer Pharma Aktiengesellschaft, priority 2017, dated 2023).

One data set deals with MDA-MB-436. The experiment in a line: In vitro anti-proliferation (Cell Titre-Glo), MDA-MB-436. The class given is cell-based. The note with it: Homo sapiens; MDA-MB-436, breast; 96 hours of incubation; mono-treatment. As for the experimental part: (§1) Tumor cells (Table 1) were propagated in a humidified 37° C. incubator in their respective growth medium supplemented 10% fetal calf serum. […] Test compounds were added to the wells using a Tecan-HP Digital Dispenser. After 96 hours of incubation cell viability was assessed with the Cell Titre-Glo Luminescent Cell Viability Assay (Promega).

The subject of a further data set is IGR-OV-1. The experiment in a line: In vitro anti-proliferation (Cell Titre-Glo), IGR-OV-1. The data set is classed as cell-based. The following applies: Homo sapiens, IGROV-1; IGR-OV-1, ovary; 96 hours of incubation; mono-treatment. Here is the method: as §1
The subject of a further data set is HT-144. The experiment in a line: In vitro anti-proliferation (Cell Titre-Glo), HT-144. The class given is cell-based. The note with it: Homo sapiens; HT-144, melanoma; 96 hours of incubation; mono-treatment. Here is the method: as §1
The subject of a further data set is NCI-H460. The experiment in a line: In vitro anti-proliferation (Cell Titre-Glo), NCI-H460. The data set is classed as cell-based. The note with it: Homo sapiens; NCI-H460, lung; 96 hours of incubation; mono-treatment. Here is the method: as §1
The subject of data set [1] is human 22Rv1 prostate cancer xenograft. The experiment in a line: 22Rv1 prostate cancer xenograft model. The class given is in vivo, mice. As for the experimental part:
(§2) The oral and intraperitoneal application volume was 10 ml/kg. The time interval between two applications per day was 6-7 h. […] Changes in the body weight were a measure of treatment-related toxicity (>10%=critical, stop of treatment until recovery, >20%=toxic, termination). The tumor area was detected by means of an electronic caliper gauge [length (mm)×width (mm)]. In vivo anti-tumor efficacy is presented as T/C ratio (Treatment/Control) calculated with tumor areas at study end by the formula [(tumor area of treatment group at day x)−(tumor area of treatment group at day before first treatment)]/[(tumor area control group at day x)−(tumor area of control group at day before first treatment)]. […] Statistical analysis was assessed using SigmaStat software. A one-way analysis of variance was performed and differences to the control were compared by a pair-wise comparison procedure (Dunn's method).

In data set [2] the test system is human MDA-MB-436 breast cancer xenograft. The experiment in a line: MDA-MB-436 breast cancer xenograft model. The class given is in vivo, mice. Here is the method:
as §2

pIC50: −log10 of the molar value. Marks after values point to notes of the source that are not given here.

In the case of `O=C(c1cc(Cc2n[nH]c(=O)c3ccccc23)ccc1F)N1CCN(C(=O)C2CC2)CC1` [Compound B, Olaparib], the pIC50 in the data set with MDA-MB-436 was 5.19; with IGR-OV-1, 4.66; in the data set with HT-144, 4.64; in the data set with NCI-H460 it was 4.55. Besides, the anti-tumor efficacy result was “no anti-tumor efficacy” in data set [1] (22Rv1 prostate cancer model, result in words) and “good anti-tumor efficacy” in data set [2] (MDA-MB-436 human breast cancer model, result in words). Further, the “Max. weight loss (%)” value is listed as −3% in data set [1] (body weight vs start of treatment, Compound A 20 mg/kg 2QD p.o. 3 on/4 off, Compound B 20 mg/kg QD i.p.) and −3% in data set [2] (body weight vs start of treatment, Compound A 20 mg/kg 2QD p.o. 3 on/4 off, Compound B 50 mg/kg QD i.p.). Besides, the T/C in data set [1] (tumor area at study end, male Fox Chase SCID mice, Compound A 20 mg/kg 2QD p.o. 3 on/4 off, Compound B 20 mg/kg QD i.p.) is recorded as 1.18; in data set [2] (tumor area at study end, NOD/Scid mice, Compound A 20 mg/kg 2QD p.o. 3 on/4 off, Compound B 50 mg/kg QD i.p.), 0.29^*.
